A word on the IC50: it is the concentration that gives 50% inhibition. High values mean weaker potency in that assay, low ones greater potency in that assay.

Structures are written as SMILES. Some results are limits rather than exact numbers.

For experiment [1], the target named is T1, JAK2 (Homo sapiens, UniProt O60674).
T1 construct: purchased Carna 08-045
Description: In vitro activity test of JAK2 kinase (Caliper EZ Reader conversion assay). The conditions noted are these: enzyme activity, 10 concentrations from 1000 nM, 3-fold dilution. It counts as biochemical. The procedure:
(§1) In Vitro Activity Test of JAK1 and JAK2 Kinases
(§2) • Centrifuge (manufacturer: Eppendorf, model: 5430) • ELISA Instrument (Manufacturer: Perkin Elmer, Model: Caliper EZ Reader 1I) • Echo 550 (Manufacturer: Labcyte, Model: Echo 550)
(§3) (1) Prepare 1 Kinase buffer.
(§4) (2) Compound concentration gradient preparation: The test compound was tested at 1000 nM, 3-fold dilution, 10 concentrations, two-well assay, and configured to a 100-fold final concentration in a 384-well plate. 250 nl of the test compound was then transferred to the 384 reaction plate using Echo550. 250 nl of 100% DMSO was added to each of the negative and positive control wells.
(§5) (3) Prepare 2.5 times the final concentration of kinase solution with 1×Kinase buffer.
(§6) (4) Add 10 μL of 2.5 times the final concentration of kinase solution to the compound wells and 10 μL of 1×Kinase buffer to the negative control wells.
(§7) (5) Centrifuge at 1000 rpm for 30 seconds, mix well with shaking, and incubate at room temperature for 10 minutes.
(§8) (6) Prepare a 25/15-fold final concentration of mixture of ATP and Kinase substrate with 1×Kinase buffer.
(§9) (7) Add 15 μL of a mixture of 25/15 times the final concentration of ATP and substrate to start the reaction.
(§10) (8) Centrifuge the 384-well plate at 1000 rpm for 30 seconds, mix well with shaking, and incubate at room temperature for an appropriate amount of time.
(§11) (9) Stop the kinase reaction by adding 30 μL of termination solution, centrifuge at 1000 rpm for 30 seconds, and mix well with shaking.
(§12) (10) Read the conversion rate with Caliper EZ Reader.
(§13) where: Conversion %_sample is the conversion rate reading of the sample-, Conversion %_min: the average value of the negative control wells, representing the conversion reading of the wells without enzyme activity: Conversion %-max: the average value of the positive control wells, representing the conversion reading of the wells without compound inhibition.
(§14) The log value of concentration was used as the X-axis and the percentage inhibition as the Y-axis, and the function of the analytical software GraphPad Prism 5; log(inhibitor) vs. response -Variable slope, was used to lit dose-effect curves to obtain the IC50) values of each compound on enzyme activity.
(§15) The formula is Y=Bottom+(Top-Bottom)/(1+10^((LogIC50-X)*HillSlope))
(§16) The 1C50 data are specified in Table 1.

Experiment [2] has as its target T2, JAK1 (Homo sapiens, UniProt P23458).
T2 construct: purchased Carna 08-114
Description: In vitro activity test of JAK1 kinase (Caliper EZ Reader conversion assay). It counts as biochemical. The conditions noted are these: enzyme activity, 10 concentrations from 1000 nM, 3-fold dilution. The procedure: as §1, §2, §3, §4, §5, §6, §7, §8, §9, §10, §11, §12, §13, §14, §15, §16

T1 sequence (O60674 whole entry, species assumed): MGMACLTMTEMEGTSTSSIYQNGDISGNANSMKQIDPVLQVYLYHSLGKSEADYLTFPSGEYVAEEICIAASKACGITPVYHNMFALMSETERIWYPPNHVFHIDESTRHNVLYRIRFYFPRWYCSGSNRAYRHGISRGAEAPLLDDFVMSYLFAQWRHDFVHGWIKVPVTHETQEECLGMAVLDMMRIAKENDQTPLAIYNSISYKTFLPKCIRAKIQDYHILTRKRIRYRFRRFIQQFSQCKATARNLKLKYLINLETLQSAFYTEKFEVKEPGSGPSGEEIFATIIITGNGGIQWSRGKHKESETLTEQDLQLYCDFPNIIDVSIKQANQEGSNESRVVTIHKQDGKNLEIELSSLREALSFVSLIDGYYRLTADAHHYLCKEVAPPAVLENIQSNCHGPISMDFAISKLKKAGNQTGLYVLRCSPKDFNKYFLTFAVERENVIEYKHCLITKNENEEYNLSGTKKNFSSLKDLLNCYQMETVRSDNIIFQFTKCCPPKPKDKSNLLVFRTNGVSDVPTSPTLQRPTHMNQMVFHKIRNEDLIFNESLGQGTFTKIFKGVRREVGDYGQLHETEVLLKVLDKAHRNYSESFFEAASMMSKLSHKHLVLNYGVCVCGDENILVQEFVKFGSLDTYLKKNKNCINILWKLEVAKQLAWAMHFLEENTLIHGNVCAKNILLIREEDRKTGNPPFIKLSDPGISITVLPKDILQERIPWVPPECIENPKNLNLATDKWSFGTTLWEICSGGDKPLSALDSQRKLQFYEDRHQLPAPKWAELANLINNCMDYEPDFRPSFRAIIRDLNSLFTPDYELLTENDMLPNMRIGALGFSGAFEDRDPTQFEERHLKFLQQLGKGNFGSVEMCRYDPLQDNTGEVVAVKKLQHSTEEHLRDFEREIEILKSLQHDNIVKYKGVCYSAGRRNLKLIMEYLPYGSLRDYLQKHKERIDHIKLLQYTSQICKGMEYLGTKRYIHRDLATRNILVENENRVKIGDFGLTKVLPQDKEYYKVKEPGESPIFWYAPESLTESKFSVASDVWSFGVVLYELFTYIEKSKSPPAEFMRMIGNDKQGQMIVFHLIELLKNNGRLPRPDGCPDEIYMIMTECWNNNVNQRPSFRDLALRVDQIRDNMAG
T2 sequence (P23458 whole entry, species assumed): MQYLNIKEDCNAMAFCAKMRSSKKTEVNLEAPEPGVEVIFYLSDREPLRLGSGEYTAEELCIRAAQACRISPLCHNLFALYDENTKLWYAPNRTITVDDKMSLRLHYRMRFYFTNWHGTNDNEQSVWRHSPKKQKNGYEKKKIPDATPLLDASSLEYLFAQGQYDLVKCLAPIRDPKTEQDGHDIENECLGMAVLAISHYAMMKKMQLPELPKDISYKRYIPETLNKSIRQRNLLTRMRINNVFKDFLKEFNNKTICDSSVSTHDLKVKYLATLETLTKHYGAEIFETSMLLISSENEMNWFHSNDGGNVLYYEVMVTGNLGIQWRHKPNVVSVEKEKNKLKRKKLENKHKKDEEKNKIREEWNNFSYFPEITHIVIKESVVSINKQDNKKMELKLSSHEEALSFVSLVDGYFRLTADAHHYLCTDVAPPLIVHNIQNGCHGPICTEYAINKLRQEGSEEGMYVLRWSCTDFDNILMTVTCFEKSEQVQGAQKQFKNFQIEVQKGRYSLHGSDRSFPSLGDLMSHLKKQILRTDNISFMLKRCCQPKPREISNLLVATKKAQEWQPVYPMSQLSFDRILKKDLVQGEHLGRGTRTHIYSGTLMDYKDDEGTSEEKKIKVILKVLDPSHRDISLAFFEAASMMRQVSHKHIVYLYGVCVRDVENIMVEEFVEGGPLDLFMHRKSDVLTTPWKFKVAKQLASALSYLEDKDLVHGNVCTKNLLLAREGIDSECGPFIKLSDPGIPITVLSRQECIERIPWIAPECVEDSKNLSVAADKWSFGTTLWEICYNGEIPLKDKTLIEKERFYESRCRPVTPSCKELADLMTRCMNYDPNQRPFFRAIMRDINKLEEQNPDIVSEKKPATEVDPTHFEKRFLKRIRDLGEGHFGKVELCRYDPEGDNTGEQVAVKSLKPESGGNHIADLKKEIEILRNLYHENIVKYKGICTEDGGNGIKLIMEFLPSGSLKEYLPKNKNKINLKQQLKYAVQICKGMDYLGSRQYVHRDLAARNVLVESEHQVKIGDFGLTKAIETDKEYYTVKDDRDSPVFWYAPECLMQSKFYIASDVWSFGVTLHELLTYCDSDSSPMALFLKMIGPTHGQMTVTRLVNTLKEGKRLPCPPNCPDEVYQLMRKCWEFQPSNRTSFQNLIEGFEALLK

For the compound `CS(=O)(=O)c1ccc(C2Nc3cnc4[nH]ccc4c3N2c2cnn(CCC#N)c2)cc1` (centres unmarked) [LXS67, 3-(4-(2-(4-(Methylsulfonyl)phenyl)-2,3-dihydroimidazo[4,5-d]pyrrolo[2,3-b]pyridin-1(6H)-yl)-1H-pyrazol-1-yl)propanenitrile], the IC50 in experiment [1] and in experiment [2] was 10 to 100 nM each time.
Take `C[C@@H](O)c1nc2cnc3[nH]ncc3c2n1[C@H]1C[C@@H](CO)N(CCCC#N)C1` [LXS94, 4-((2S,4S)-4-(2-((R)-1-Hydroxyethyl)imidazo[4,5-d]pyrazolo[3,4-b]pyridin-1(6H)-yl)-2-(hydroxymethyl)pyrrolidin-1-yl)butanenitrile]: the IC50 was in the range of 100 to 1000 nM in experiment [1] and 10 to 100 nM in experiment [2].
For `C[C@@H](O)c1nc2cnc3[nH]ccc3c2n1[C@H]1CCN(CCCC#N)C1` [LXS65, 4-((S)-3-(2-((R)-1-Hydroxyethyl)imidazo[4,5-d]pyrrolo[2,3-b]pyridin-1(6H)-yl)pyrrolidin-1-yl)butanenitrile], in that order: 100 to 1000 nM and under 10 nM.
For `CS(=O)(=O)c1ccc(C2Nc3cnc4[nH]ccc4c3N2C2CCC(C#N)CC2)cc1` (stereo in doubt) [LXS44, trans-4-(2-(4-(Methylsulfonyl)phenyl)-2,3-dihydroimidazo[4,5-d]pyrrolo[2,3-b]pyridin-1(6H)-yl)cyclohexanecarbonitrile], in that order: 10 to 100 nM and 10 to 100 nM.
Taken in the same sequence, the figures for `N#Cc1ccc(-n2c(-c3ccc(CO)o3)nc3cnc4[nH]ccc4c32)cc1` [LXS55, 4-(2-(5-(Hydroxymethyl)furan-2-yl)imidazo[4,5-d]pyrrolo[2,3-b]pyridin-1(6H)-yl)benzonitrile] were 100 to 1000 nM and 100 to 1000 nM.
With `C=CC(=O)N1CCC(n2c(-c3ccc(O)cc3O)nc3cnc4[nH]ccc4c32)C1` (centres unmarked) [LXS33, 1-(3-(2-(2,4-Dihydroxyphenyl)imidazo[4,5-d]pyrrolo[2,3-b]pyridin-1(6H)-yl)pyrrolidin-1-yl)prop-2-en-1-one], the IC50 in experiment [1] and in experiment [2] was 10 to 100 nM each time.
Take `C[C@@H](O)c1nc2cnc3[nH]ccc3c2n1[C@@H]1CCN(CCC#N)C1` [LXS58, 3-((R)-3-(2-((R)-1-Hydroxyethyl)imidazo[4,5-d]pyrrolo[2,3-b]pyridin-1(6H)-yl)pyrrolidin-1-yl)propanenitrile]: the IC50 in experiment [1] and in experiment [2] was 10 to 100 nM in each case.
Consider `N#CCCn1cc(-n2c(-c3cccs3)nc3cnc4[nH]ccc4c32)cn1` [LXS106, 3-(4-(2-(Thiophen-2-yl)imidazo[4,5-d]pyrrolo[2,3-b]pyridin-1(6H)-yl)-1H-pyrazol-1-yl)propanenitrile], for which the IC50 in experiment [1] was 10 to 100 nM; in experiment [2] it was 100 to 1000 nM.
Taken in the same sequence, the figures for `CCCCS(=O)(=O)N1CCC(n2c([C@@H](C)O)nc3cnc4[nH]ccc4c32)C1` (stereo partly drawn) [LXS06, (1R)-1-(1-(1-(butylsulfonyl)pyrrolidin-3-yl)-1,6-dihydroimidazo[4,5-d]pyrrolo[2,3-b]pyridin-2-yl)ethan-1-ol] were 100 to 1000 nM and 10 to 100 nM.
Taken in the same sequence, the figures for `C[C@@H](O)c1nc2cnc3[nH]ccc3c2n1[C@@H]1CN(CCCCC#N)CC12CC2` [LXS72, 5-((S)-7-(2-((R)-1-Hydroxyethyl)imidazo[4,5-d]pyrrolo[2,3-b]pyridin-1(6H)-yl)-5-azaspiro[2,4]hept-5-yl)pentanonitrile] were 10 to 100 nM and 10 to 100 nM.
Consider `Cc1ccc(-c2nc3cnc4[nH]ccc4c3n2C2CCC(C#N)CC2)s1` (stereo in doubt) [LXS28, trans-4-(2-(2-Methylthiophen-5-yl)imidazo[4,5-d]pyrrolo[2,3-b]pyridin-1(6H)-yl)cyclohexanecarbonitrile], for which the IC50 in experiment [1] and in experiment [2] was 10 to 100 nM each time.
`OCc1ccc(-c2nc3cnc4[nH]ccc4c3n2[C@H]2CCN(CCCC(F)(F)F)C2)o1` [LXS98, (S)-(5-(1-(1-(4,4,4-trifluorobutyl)pyrrolidin-3-yl)-1,6-dihydroimidazo[4,5-d]pyrrolo[2,3-b]pyridin-2-yl)furan-2-yl)methanol]: the IC50 in experiment [1] and in experiment [2] was 10 to 100 nM each time.
On to `CC(C(=O)NCC(F)(F)F)N1CC[C@H](n2c([C@@H](C)O)nc3cnc4[nH]ccc4c32)C1` (stereo partly drawn) [LXS75, 2-((S)-3-(2-((R)-1-Hydroxyethyl)imidazo[4,5-d]pyrrolo[2,3-b]pyridin-1(6H)-yl)pyrrolidin-1-yl)-N-(2,2,2-trifluoroethyl)propanamide], for which the IC50 in experiment [1] is 100 to 1000 nM; in experiment [2], under 10 nM.
Taken in the same sequence, the figures for `C[C@@H](O)c1nc2cnc3[nH]ccc3c2n1[C@@H]1CN(CCCC(F)(F)F)CC12CC2` [LXS70, (R)-1-(1-((S)-5-(4,4,4-Trifluorobutyl)-5-azaspiro[2,4]hept-7-yl)-1,6-dihydroimidazo[4,5-d]pyrrolo[2,3-b]pyridin-2-yl)ethanol] were 10 to 100 nM and 10 to 100 nM.
For `O=C(C1CC1)N1CCC(n2c(-c3ccc(CO)o3)nc3cnc4[nH]ccc4c32)C1` (centres unmarked) [LXS17, Cyclopropyl(3-(2-(5-(hydroxymethyl)furan-2-yl)imidazo[4,5-d]pyrrolo[2,3-b]pyridin-1(6H)-yl)pyrrolidin-1-yl) methanone], in that order: 10 to 100 nM and 10 to 100 nM.
As to `N#Cc1ccc(-n2c(-c3cccc(O)c3)nc3cnc4[nH]ccc4c32)cc1` [LXS56, 4-(2-(3-Hydroxyphenyl)imidazo[4,5-d]pyrrolo[2,3-b]pyridin-1(6H)-yl)benzonitrile], the IC50 in experiment [1] fell in the range of 100 to 1000 nM; in experiment [2] it was 10 to 100 nM.
`N#C[C@H]1CC[C@H](n2c(-c3ccc(F)cc3)nc3cnc4[nH]ccc4c32)CC1` (stereo in doubt) [LXS43, trans-4-(2-(4-Fluorophenyl)imidazo[4,5-d]pyrrolo[2,3-b]pyridin-1(6H)-yl)cyclohexanecarbonitrile]: the IC50 in experiment [1] was 100 to 1000 nM; in experiment [2], 10 to 100 nM.
For `CCCS(=O)(=O)N1CCC(n2c(-c3ncc[nH]3)nc3cnc4[nH]ccc4c32)C1` (centres unmarked) [LXS18, 2-(1H-imidazol-2-yl)-1-(1-(propylsulfonyl)pyrrolidin-3-yl)-1,6-dihydroimidazo[4,5-d]pyrrolo[2,3-b]pyridine], in that order: 10 to 100 nM and 10 to 100 nM.
Taken in the same sequence, the figures for `C[C@@H](O)c1nc2cnc3[nH]ncc3c2n1[C@@H]1CN(CCCC#N)CC1F` (stereo partly drawn) [LXS93, 4-((4R)-3-Fluoro-4-(2-((R)-1-hydroxyethyl)imidazo[4,5-d]pyrazolo[3,4-b]pyridin-1(6H)-yl)pyrrolidin-1-yl)butanenitrile] were 100 to 1000 nM and under 10 nM.
Taken in the same sequence, the figures for `CCC(C(=O)NCC(F)(F)F)N1CC[C@H](n2c([C@@H](C)O)nc3cnc4[nH]ccc4c32)C1` (stereo partly drawn) [LXS76, 2-((S)-3-(2-((R)-1-Hydroxyethyl)imidazo[4,5-d]pyrrolo[2,3-b]pyridin-1(6H)-yl)pyrrolidin-1-yl)-N-(2,2,2-trifluoroethyl)butanamide] were 100 to 1000 nM and under 10 nM.
Turning to `C[C@@H](O)c1nc2cnc3[nH]ccc3c2n1-c1ccc(C#N)cc1` [LXS54, (R)-4-(2-(1-Hydroxyethyl)imidazo[4,5-d]pyrrolo[2,3-b]pyridin-1(6H)-yl)benzonitrile], the IC50 in experiment [1] and in experiment [2] was 100 to 1000 nM in each case.
Turning to `CS(=O)(=O)c1ccc(C2Nc3cnc4[nH]ccc4c3N2C2CCN(CCC#N)C2)cc1` (centres unmarked) [LXS60, 3-(3-(2-(4-(Methylsulfonyl)phenyl)-2,3-dihydroimidazo[4,5-d]pyrrolo[2,3-b]pyridin-1(6H)-yl)pyrrolidin-1-yl)propanenitrile], the IC50 in experiment [1] and in experiment [2] was 10 to 100 nM in each case.
`O=C(NCC(F)(F)F)N1CCC(n2c(-c3ncc[nH]3)nc3cnc4[nH]ccc4c32)C1` (stereo in doubt) [LXS24, (R)-3-(2-(1H-imidazol-2-yl)imidazo[4,5-d]pyrrolo[2,3-b]pyridin-1(6H)-yl)-N-(2,2,2-trifluoroethyl)pyrrolidine-1-carboxamide]: the IC50 in experiment [1] and in experiment [2] was 100 to 1000 nM in each case.
For the compound `CCS(=O)(=O)N1CC(CC#N)(n2cc(-n3c(-c4ccc(C)s4)nc4cnc5[nH]ccc5c43)cn2)C1` [LXS62, 2-(1-(Ethylsulfonyl)-3-(4-(2-(5-methylthien-2-yl)imidazo[4,5-d]pyrrolo[2,3-b]pyridin-1(6H)-yl)-1H-pyrazol-1-yl)azetidin-3-yl)acetonitrile], the IC50 was under 10 nM in experiment [1] and 100 to 1000 nM in experiment [2].
Taken in the same sequence, the figures for `N#CCn1cc(-n2c(C(F)(F)F)nc3cnc4[nH]ccc4c32)cn1` [LXS78, 2-(4-(2-(Trifluoromethyl)imidazo[4,5-d]pyrrolo[2,3-b]pyridin-1(6H)-yl)-1H-pyrazol-1-yl)acetonitrile] were 10 to 100 nM and 10 to 100 nM.
